Data set [1] deals with apo(a) secretion in primary cultures of Cynomolgus hepatocytes. Put plainly: Lowering the production of apo(a) in primary cultures of Cynomolgus hepatocytes (ELISA of culture medium). The class given is cell-based, Cynomolgus monkeys. To be noted: Macaca fascicularis, Hepatocyte, tested at 20 μM, 6-24 hours incubation, one range stated for all listed compounds, read-out: lowering of apo(a) secretion (change vs control plates). The method, then: The compounds of formula (I) were assayed for lowering the production of apo(a) in primary cultures of Cynomolgus hepatocytes.
Protocol: Hepatocytes were isolated from livers of male adult Cynomolgus monkeys by the two-step collagenase perfusion method according to C. Guguen-Guillouzo and A. Guillouzo “Methods for preparation of adult and fetal hepatocytes” p.1-12in “Isolated and Cultured Hepatocytes,” les editions Inserm Paris and John Libbey Eurotext London (1986).
The viability of cells was determined by Trypan blue staining. The cells were then seeded at a density of 1.5-2.10^5 viable cells per 2 cm^2 in 24 well tissue culture plates in a volume of 500 μl per well of Williams E tissue culture medium containing 10% fetal calf serum. Cells were incubated for 6-24 hours at 37° C. in a CO2 incubator (5% CO2) in the presence of 20 μM of the test compounds dissolved in ethanol. Four wells were used for each compound. Nicotinic acid and steroid hormones were used as references to validate the assay system since they are known to decrease Lp(a) in man. Control cells were incubated in the presence of ethanol only.
The amount of Lp(a) secreted in culture medium was directly assayed by ELISA using a commercially available kit. Cells were washed and lysed as described by A. L. White et al., Journal of Lipid Research vol. 34, p. 509-517, (1993) and the cellular content of Lp(a) was assayed as described above. Changes in Lp(a) concentration in culture medium are given as the percentage of value measured for the control plates.

`CCOP(=O)(CC(Nc1cccnc1)c1cc(OC)c(O)c(OC)c1)OCC` (stereo not drawn) [Compound 1, diethyl β-(3,5-dimethoxy-4-hydroxyphenyl)-β-[N-(3-pyridyl)-amino]-ethylphosphonate] gave a melting point of 164 to 166 °C. Further, the inhibition at 20 µM in data set [1] lay within 10 to 35%.

In turn, `COc1cc(C(CP(=O)(OC(C)C)OC(C)C)Nc2cccnc2)cc(OC)c1O` (stereo not drawn) [Compound 2, diisopropyl β-(3,5-dimethoxy-4-hydroxyphenyl)-β-[N-(3-pyridyl)-amino]-ethylphosphonate] came in with a melting point of 138 to 140 °C. Besides, the inhibition at 20 µM in data set [1] lay within 10 to 35%.

The compound `CCOP(=O)(CC(Nc1cccnc1)c1cc(C)c(O)c(OC)c1)OCC` (stereo not drawn) [Compound 9, diethyl β-(4-hydroxy-3-methoxy-5-methylphenyl)-β-[N-(3-pyridyl)-amino]-ethylphosphonate] had a melting point of 156 to 158 °C. In data set [1], the inhibition at 20 µM is 10 to 35%.

In turn, `COc1cc(C(CP(=O)(OC(C)C)OC(C)C)Nc2cccnc2)cc(C)c1O` (stereo not drawn) [Compound 10, diisopropyl β-(4-hydroxy-3-methoxy-5-methylphenyl)-β-[N-(3-pyridyl)-amino]-ethylphosphonate] gave a melting point of 135 to 137 °C. Also, the inhibition at 20 µM in data set [1] was in the range of 10 to 35%.

In turn, `CCOP(=O)(CC(Nc1cccnc1)c1cc(C)c(O)c(C)c1)OCC` (stereo not drawn) [Compound 16, diethyl β-(3,5-dimethyl-4-hydroxyphenyl)-β-[N-(3-pyridyl)-amino]-ethylphosphonate] gave a melting point of 98 to 101 °C. Moreover, the inhibition at 20 µM in data set [1] lay in the range of 10 to 35%.

`Cc1cc(C(CP(=O)(OC(C)C)OC(C)C)Nc2cccnc2)cc(C)c1O` (stereo not drawn) [Compound 17, diisopropyl β-(3,5-dimethyl-4-hydroxyphenyl)-β-[N-(3-pyridyl)-amino]-ethylphosphonate] registered a melting point of 104 to 105 °C. Also, the inhibition at 20 µM in data set [1] fell in the range of 10 to 35%.

As to `CCOP(=O)(CC(Nc1cccnc1)c1cc(OC)c(OC)c(OC)c1)OCC` (stereo not drawn) [Compound 18, diethyl β-(3,4,5-trimethoxyphenyl)-β-[N-(3-pyridyl)-amino]-ethylphosphonate], the melting point was in the range of 104 to 106 °C. The inhibition at 20 µM in data set [1] lay in the range of 10 to 35%.

As for `COc1cc(C(CP(=O)(OC(C)C)OC(C)C)Nc2cccnc2)cc(OC)c1OC` (stereo not drawn) [Compound 19, diisopropyl β-(3,4,5-trimethoxyphenyl)-β-[N-(3-pyridyl)-amino]-ethylphosphonate], the melting point lay in the range of 96 to 98 °C. Moreover, in data set [1], the inhibition at 20 µM lay within 10 to 35%.

`CCOc1cc(C(CP(=O)(OCC)OCC)Nc2cccnc2)cc(C)c1O` (stereo not drawn) [Compound 20, diethyl β-(3-ethoxy-4-hydroxy-5-methylphenyl)-β-[N-(3-pyridyl)-amino]-ethylphosphonate] had a melting point of 162 to 164 °C. Moreover, the inhibition at 20 µM in data set [1] is 10 to 35%.

For `CCOc1cc(C(CP(=O)(OC(C)C)OC(C)C)Nc2cccnc2)cc(C)c1O` (stereo not drawn) [Compound 21, diisopropyl β-(3-ethoxy-4-hydroxy-5-methylphenyl)-β-[N-(3-pyridyl)-amino]-ethylphosphonate], the melting point lay in the range of 148 to 150 °C. For the same compound, the inhibition at 20 µM in data set [1] fell in the range of 10 to 35%.

As for `CCOP(=O)(CC(Nc1cccnc1)c1cc(C(C)(C)C)c(OC)c(C(C)(C)C)c1)OCC` (stereo not drawn) [Compound 30, diethyl β-(3,5-di-tert-butyl-4-methoxyphenyl)-β-[N-(3-pyridyl)-amino]-ethylphosphonate], the inhibition at 20 µM in data set [1] fell in the range of 10 to 35%.

For the compound `CCOP(=O)(CC(Nc1cccnc1)c1ccc(C)c(O)c1C)OCC` (stereo not drawn) [Compound 31, diethyl β-(2,4-dimethyl-3-hydroxyphenyl)-β-[N-(3-pyridyl)-amino]-ethylphosphonate], the inhibition at 20 µM in data set [1] fell in the range of 10 to 35%.

`CCOP(=O)(CC(Nc1cccnc1)c1cc(O)c(C)c(OC)c1)OCC` (stereo not drawn) [Compound 34, diethyl β-(3-hydroxy-5-methoxy-4-methylphenyl)-β-[N-(3-pyridyl)-amino]-ethylphosphonate] displayed a melting point of 146 to 147 °C. In data set [1], the inhibition at 20 µM was 10 to 35%.

In the case of `CCOP(=O)(CC(Nc1cccnc1)c1cc(OC)c(CO)c(OC)c1)OCC` (stereo not drawn) [Compound 37, diethyl β-(3,5-dimethoxy-4-hydroxymethylphenyl)-β-[N-(3-pyridyl)-amino]-ethylphosphonate], the inhibition at 20 µM in data set [1] is 10 to 35%.

Usually melting point stands for the temperature of the solid-liquid transition.
